Measurements as given in article PMC11220827 (Frontiers in Pharmacology, 2024).
Where two headings read alike, the source gives them in different places.

Assays:
[1] = format: in vitro ADME
Description: Additional information was required to determine whether an adjustment factor was needed to account for a difference in the absorption of daidzein after topical application and whether the absorption was impacted by the use of the intended (body lotion base) formulation. […]. […] […]. The results of this study are described in detail by [Géniès et al. (2024)] and are summarized here.

Adenosine A2A (h) = Adenosine A2A (h) (Homo sapiens, UniProt P29274); assay: Pharmacology profiling: Adenosine A2A (h) (agonist RL); format: binding; settings: for inhibition at 10 µM: read-out: Adenosine A2A (h) (agonist RL): % inhibition @10 µM
Description: (§1) Cosmetics Europe’s Systemic Toxicity Taskforce (SysTox-TF) has extended the list of targets in an in vitro screen originally described by [Bowes et al. (2012)] to assess the effects of cosmetic chemicals on target molecules. The approach was based on the knowledge that various targets of pharmacological interest have been linked to human adverse drug reactions, and that screening of these has helped the pharma industry in identifying drug candidates with acceptable human safety profiles ([Bowes et al., 2012]; [Scott et al., 2022]). The methods used by the pharma industry were adapted for use in cosmetic chemical NGRA. A final list of 83 target assays were considered suitable for cosmetic chemical safety testing (see Supplementary Materials S1.7). The targets were receptors, ion channels, transporters and enzymes identified by the pharma industry as linked to human adverse drug reactions, supplemented by additional targets that have been reasoned to be linked to systemic toxicities of chemicals in animals. Chemicals that are flagged for a target are tested in follow-up dose-response assays to establish potency of the interaction. […]. [Valentin et al., 2018]; [Dodson et al., 2021]). […].
(§2) assay’s reference compound was set to 100%. For antagonist assays, the basal signal (exposure to fixed concentration of agonist only) was set to 100%. Activity of the samples was scaled accordingly, […]
(§3) Using these graphs, lowest […]
(§4) compound activity for antagonist assays.
(§5) S1.7. Pharmacology profiling assays […]
(§6) reasoned to link to pathological effects. […]
(§7) around the control level. […]
(§8) determine the potency (IC50).
(§9) Supplementary Table S4 Pharmacology profiling assay panel. […]

MCF-7 cells = assay: Transcriptomics (TempO-Seq, BMD analysis) in MCF-7 cells; format: cell-based, human; settings: for Lowest median BMD, 3 genes passing all filters / Lowest median BMD, >5 genes passing all filters / BMD relating to estrogen effects: MCF-7, 24 h; for Lowest median BMD, 3 genes passing all filters / Lowest median BMD, >5 genes passing all filters: pathway differs per chemical; for BMD relating to estrogen effects: pathway named in the cell
Description: (§10) These differed with respect to the number of genes passing all filters in each pathway (3 versus 5 genes). […] Therefore, we captured pathways which fulfilled both criteria.
(§11) HepG2 (human hepatoblastoma) , MCF-7 (human breast adenocarcinoma) cells supplied by
(§12) Public Health England European Collection of Cell Cultures (ECACC, Salisbury, UK). Differentiated
(§13) HepaRG cells (HPR116, Lot HPR116239 -TA08) were from Biopredic International (Rennes, France).
(§14) Test chemicals were prepared in DMSO as serial dilutions, resulting in concentrations in media of
(§15) biological replicates were treated with the appropriate dose of co mpound for 24 h prior to cell lysis.
(§16) Biospyder human whole genome panel version 1 (https://biospyder.com).
Gene normalization and analysis
(§17) expression values for each probe were normalized by applying DESEQ2 normalization. A pseudo-
(§18) read-count of 1.0 was added to each normalized expression value, and then the values were log2
(§19) transformed . Analyses performed included Gene and Pathway, Dose Response and Network
(§20) monotonic increasing/decreasing trend were those which confirmed to the criteria : William’s trend
(§21) Those genes were then used in categorical (pathway) analysis for the Gene Ontology (GO) terms and
(§22) REACTOME pathways. Significant dose responsive pathways were determined according to : Fisher’s

Thyroid peroxidase = tested on: Thyroid peroxidase; set-up: method as in ToxCast; settings: ref ToxCast, cited from earlier work; for Thyroid pathway: Thyroid peroxidase, Call: key: Pos = positive result; Neg = negative result; Inc = uncertain/inconclusive result
Thyroid pathway = tested on: Thyroid pathway; set-up: method as in ToxCast; settings: ref ToxCast, cited from earlier work; for Thyroid pathway: Reporter protein Agonist, Call: key: Pos = positive result; Neg = negative result; Inc = uncertain/inconclusive result; for Thyroid pathway: Reporter protein Antagonist, Call: key: Pos = positive result; Neg = negative result; Inc = uncertain/inconclusive result
5-HT2B (h) = 5-HT2B (h) (Homo sapiens, UniProt P41595); assay: Pharmacology profiling: 5-HT2B (h) (agonist RL); format: binding; settings: for inhibition at 10 µM: read-out: 5-HT2B (h) (agonist RL): % inhibition @10 µM
Description: as §1, §2, §3, §4, §5, §6, §7, §8, §9

COX2 (h) = biological target: T1, COX2 (h) (Homo sapiens, UniProt P35354); assay: Pharmacology profiling: COX2 (h); format: biochemical; settings: for inhibition at 10 µM: read-out: COX2 (h): % inhibition @10 µM
T1 sequence (P35354 18-604): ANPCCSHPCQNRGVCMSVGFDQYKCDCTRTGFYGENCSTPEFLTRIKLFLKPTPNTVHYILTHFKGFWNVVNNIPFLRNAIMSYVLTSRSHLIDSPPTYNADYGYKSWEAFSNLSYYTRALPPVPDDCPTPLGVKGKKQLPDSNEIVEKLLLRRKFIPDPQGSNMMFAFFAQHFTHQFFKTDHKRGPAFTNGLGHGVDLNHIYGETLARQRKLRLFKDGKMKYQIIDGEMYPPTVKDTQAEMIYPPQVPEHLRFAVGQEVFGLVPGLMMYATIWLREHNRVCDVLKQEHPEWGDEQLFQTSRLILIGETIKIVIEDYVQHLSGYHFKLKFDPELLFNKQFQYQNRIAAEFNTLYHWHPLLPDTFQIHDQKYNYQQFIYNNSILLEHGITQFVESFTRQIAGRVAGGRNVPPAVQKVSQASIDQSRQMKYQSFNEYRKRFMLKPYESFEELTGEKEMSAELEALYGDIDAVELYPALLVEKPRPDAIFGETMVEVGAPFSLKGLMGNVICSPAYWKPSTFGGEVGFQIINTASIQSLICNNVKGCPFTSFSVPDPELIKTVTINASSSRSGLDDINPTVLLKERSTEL
Description: as §1, §2, §3, §4, §5, §6, §7, §8, §9

Aromatase = tested on: Aromatase; set-up: method as in ToxCast; settings: ref ToxCast; cited from earlier work; note: key: Pos = positive result; Neg = negative result; Inc = uncertain/inconclusive result
ER = tested on: ER; set-up: method as in Opera; settings: experimental call listed in the Opera output; ref Opera; cited from earlier work
PDE4D2 (h) = PDE4D2 (h) (Homo sapiens, UniProt Q08499); assay: Pharmacology profiling: PDE4D2 (h) (phosphodiesterase 4D); format: biochemical; settings: for inhibition at 10 µM: read-out: PDE4D2 (h) (phosphodiesterase 4D): % inhibition @10 µM
Description: as §1, §2, §3, §4, §5, §6, §7, §8, §9

Deiodinase = tested on: Deiodinase; set-up: method as in ToxCast; settings: ref ToxCast, cited from earlier work; for AC50: read-out: Thyroid pathway: Deiodinase (Not AOP), AC50
Adenosine A1 (h) = biological target: T2, Adenosine A1 (h) (Homo sapiens, UniProt P30542); assay: Pharmacology profiling: Adenosine A1 (h) (antagonist RL); format: binding; settings: for inhibition at 10 µM: read-out: Adenosine A1 (h) (antagonist RL): % inhibition @10 µM
T2 sequence (P30542 1-326): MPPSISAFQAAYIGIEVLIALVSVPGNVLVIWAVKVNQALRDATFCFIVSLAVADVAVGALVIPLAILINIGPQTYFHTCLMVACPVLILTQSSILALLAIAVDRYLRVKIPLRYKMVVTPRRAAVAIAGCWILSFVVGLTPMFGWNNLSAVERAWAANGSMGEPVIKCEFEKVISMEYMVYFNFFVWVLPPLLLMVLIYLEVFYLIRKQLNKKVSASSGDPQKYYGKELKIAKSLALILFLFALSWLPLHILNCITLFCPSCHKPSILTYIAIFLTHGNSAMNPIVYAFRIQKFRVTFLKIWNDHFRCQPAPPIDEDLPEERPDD
Description: (§23) targets. The list of targets included the original panel of 44 targets (including receptors, ion channels,
(§24) transporters and enzymes) recommended by 4 major pharmaceutical companies as significant
(§25) reasoned to link to pathological effects. Results showing an inhibition or stimulation higher than 50%
(§26) are considered to represent significant effects (i.e. a “hit”).
(§27) and 50% are indicative of weak to moderate effects and results showing an inhibition (or stimulation)
(§28) around the control level. For several targets, additional concentration effect assays were conducted to
(§29) determine the potency (IC50). The concentrations tested (in duplicate) ranged between 30 nM and 100

HepG2 cells = assay: Transcriptomics (TempO-Seq, BMD analysis) in HepG2 cells; format: cell-based, human; settings: for BMD relating to estrogen effects: pathway named in the cell; for BMD/NOEC, gene pathway deregulation: HepG2 cells
Description: as §10, §11, §12, §13, §14, §15, §16
Gene normalization and analysis
as §17, §18, §19, §20, §21, §22

Estrogen pathway = tested on: Estrogen pathway; set-up: method as in ToxCast; settings: ref ToxCast, cited from earlier work
COX1 (h) = COX1 (h) (Homo sapiens, UniProt P23219); assay: Pharmacology profiling: COX1 (h); format: biochemical
Description: as §23, §24, §25, §26, §27, §28, §29

[2] = HepG2, 24 h, pathway differs per chemical
[3] = read-out: Estrogen pathway: Receptor binding, AC50

5-HT2B (h), sequence (P41595 whole entry): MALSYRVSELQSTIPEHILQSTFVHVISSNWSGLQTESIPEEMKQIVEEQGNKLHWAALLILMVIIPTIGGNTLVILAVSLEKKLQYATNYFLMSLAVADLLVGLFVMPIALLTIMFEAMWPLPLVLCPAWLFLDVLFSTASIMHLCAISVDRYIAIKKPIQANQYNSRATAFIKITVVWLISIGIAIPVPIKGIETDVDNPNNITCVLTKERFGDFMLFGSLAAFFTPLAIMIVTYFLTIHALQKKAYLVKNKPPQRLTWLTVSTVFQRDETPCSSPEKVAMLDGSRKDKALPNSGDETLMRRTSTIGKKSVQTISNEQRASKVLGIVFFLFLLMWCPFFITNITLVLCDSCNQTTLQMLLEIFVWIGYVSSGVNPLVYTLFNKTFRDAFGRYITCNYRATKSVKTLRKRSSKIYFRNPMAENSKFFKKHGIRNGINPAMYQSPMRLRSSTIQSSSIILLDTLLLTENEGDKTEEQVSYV
PDE4D2 (h), sequence (Q08499 303-809): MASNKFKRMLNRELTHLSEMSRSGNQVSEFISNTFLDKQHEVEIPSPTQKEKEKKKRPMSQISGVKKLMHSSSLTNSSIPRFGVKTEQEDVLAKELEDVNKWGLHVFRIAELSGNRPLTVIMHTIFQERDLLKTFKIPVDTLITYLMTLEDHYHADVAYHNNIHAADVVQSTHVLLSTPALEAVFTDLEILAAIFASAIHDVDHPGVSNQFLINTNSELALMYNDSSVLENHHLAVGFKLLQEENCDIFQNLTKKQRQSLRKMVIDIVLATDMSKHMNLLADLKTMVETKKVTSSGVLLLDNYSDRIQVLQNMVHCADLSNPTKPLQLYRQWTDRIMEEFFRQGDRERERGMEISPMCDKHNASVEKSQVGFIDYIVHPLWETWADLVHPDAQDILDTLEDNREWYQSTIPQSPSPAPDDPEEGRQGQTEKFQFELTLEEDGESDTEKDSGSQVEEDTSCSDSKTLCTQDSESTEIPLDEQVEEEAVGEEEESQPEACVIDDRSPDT
Adenosine A2A (h), sequence (P29274 whole entry): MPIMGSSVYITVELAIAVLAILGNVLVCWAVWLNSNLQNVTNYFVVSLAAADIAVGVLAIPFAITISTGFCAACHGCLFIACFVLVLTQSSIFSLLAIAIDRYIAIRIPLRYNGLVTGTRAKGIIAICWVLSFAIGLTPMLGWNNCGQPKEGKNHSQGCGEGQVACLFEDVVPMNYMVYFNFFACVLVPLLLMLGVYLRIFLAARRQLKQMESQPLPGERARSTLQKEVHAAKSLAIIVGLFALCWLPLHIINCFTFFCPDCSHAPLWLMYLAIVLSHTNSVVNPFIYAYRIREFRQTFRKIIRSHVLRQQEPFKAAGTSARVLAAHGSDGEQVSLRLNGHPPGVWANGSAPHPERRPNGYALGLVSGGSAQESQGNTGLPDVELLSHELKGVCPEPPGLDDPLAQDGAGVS
COX1 (h), sequence (P23219 24-599): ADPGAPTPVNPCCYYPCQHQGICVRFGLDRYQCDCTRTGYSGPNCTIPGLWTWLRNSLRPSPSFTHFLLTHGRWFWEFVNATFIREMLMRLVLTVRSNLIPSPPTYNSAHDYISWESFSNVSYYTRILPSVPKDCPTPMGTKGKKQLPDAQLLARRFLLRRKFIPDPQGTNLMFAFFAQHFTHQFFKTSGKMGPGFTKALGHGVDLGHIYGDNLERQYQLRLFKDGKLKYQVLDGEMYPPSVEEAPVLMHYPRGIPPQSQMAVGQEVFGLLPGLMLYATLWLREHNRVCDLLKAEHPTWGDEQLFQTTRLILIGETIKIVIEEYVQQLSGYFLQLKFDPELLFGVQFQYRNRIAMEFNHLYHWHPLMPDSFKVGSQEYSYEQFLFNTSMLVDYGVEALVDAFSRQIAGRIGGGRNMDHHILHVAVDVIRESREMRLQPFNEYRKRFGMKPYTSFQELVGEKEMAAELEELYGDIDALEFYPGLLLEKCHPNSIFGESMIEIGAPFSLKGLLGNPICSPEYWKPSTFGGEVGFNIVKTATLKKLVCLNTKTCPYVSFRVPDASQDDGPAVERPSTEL
Description for U2-OS cells: using the U2-OS based CALUX cytotox bioassay. The cytotoxicity of each test chemical was assessed using the U2-OS based cytotoxicity CALUX bioassay. Concentrations causing >20% reduction of luminescence were considered cytotoxic.
cytotoxicity (relative induction in the cytotoxicity CALUX bioassay > 80%) were used for final
evaluation of analysis results.
induction in the cytotox CALUX bioassay > 80%) were used for final evaluation of analysis results.
All analysis results were expressed in molar (M) final in well.
For the analyses in the presence of rat liver S9, 0.03% (v/v) of PB/BNF induced rat liver
S9 mix (including NADPH and an NADPH-regenerating system) was added to the cells directly after
addition of the compounds, which remained there for the duration of the exposure period (24 h) (van

SMILES	inhibition at 10 µM (Adenosine A2A (h)) [%]	Lowest median BMD, 3 genes passing all filters (MCF-7 cells) [µM]	Lowest median BMD, >5 genes passing all filters (MCF-7 cells) [µM]	BMD relating to estrogen effects (MCF-7 cells)	Thyroid pathway: Thyroid peroxidase, Call (Thyroid peroxidase)	inhibition at 10 µM (5-HT2B (h)) [%]	inhibition at 10 µM (COX2 (h)) [%]	Steroidogenesis: Aromatase, Call (Aromatase)	ER agonist, Experimental (ER)	ER binding, Experimental (ER)	inhibition at 10 µM (PDE4D2 (h)) [%]	Thyroid pathway: Deiodinase (Not AOP), Call (Deiodinase)	AC50 (Deiodinase) [µM]	inhibition at 10 µM (Adenosine A1 (h)) [%]	Lowest median BMD, >5 genes passing all filters (HepG2 cells; [2]) [µM]	BMD relating to estrogen effects (HepG2 cells; HepG2, 24 h)	BMD/NOEC, gene pathway deregulation (HepG2 cells) [µM]	AC50 (Estrogen pathway; [3]) [µM]	also measured
O=c1c(-c2ccc(O)cc2)coc2cc(O)ccc12 [Daidzein, DAIDZEIN]	20.5	0.038	0.084	21.3 - response to estrogen ↓ µM	Pos	44.1	21.6	Neg	Active (medium)	Active (weak)	0.04	Pos	17.2	19.9	30.0	None	16.2	0.17	Metabolized in the skin after 24 h ([1]; human, 24 h): 55%; Lowest median BMD (BMD/NOEC, gene pathway deregulation) (MCF-7 cells; MCF-7 cells): 38 nM; AC50 (Thyroid peroxidase; read-out: Thyroid pathway: Thyroid peroxidase, AC50): 10.2 µM; Thyroid pathway: Reporter protein Agonist, Call (Thyroid pathway): Neg; Thyroid pathway: Reporter protein Antagonist, Call (Thyroid pathway): Neg; Thyroid pathway: mRNA induction, Call (Thyroid pathway): Neg; Cytotoxicity LOEC, +S9 (U2-OS cells; human, 24 h): >−5 Log M; Cytotoxicity LOEC, −S9 (U2-OS cells; human, 24 h): >−5 Log M; Lowest median BMD, 3 genes passing all filters (HepG2 cells; [2]): 16.2 µM; Estrogen pathway: Cell Proliferation, Call (Estrogen pathway): Pos; Estrogen pathway: Dimerization, Call (Estrogen pathway): Pos; Estrogen pathway: Receptor binding, Call (Estrogen pathway): Pos; Estrogen pathway: Reporter protein Agonist, Call (Estrogen pathway): Pos; Estrogen pathway: Reporter protein Antagonist, Call (Estrogen pathway): Neg; Estrogen pathway: mRNA induction, Call (Estrogen pathway): Pos; AC50 (Estrogen pathway; read-out: Estrogen pathway: Cell Proliferation, AC50): 0.15 µM; AC50 (Estrogen pathway; read-out: Estrogen pathway: Dimerization, AC50): 0.77 µM; AC50 (Estrogen pathway; read-out: Estrogen pathway: Reporter protein Agonist, AC50): 1.68 µM; AC50 (Estrogen pathway; read-out: Estrogen pathway: mRNA induction, AC50): 0.15 µM; inhibition at 10 µM (COX1 (h); read-out: COX1 (h): % inhibition @10 µM): 44.7%
O=c1c(-c2ccc(O)cc2)coc2cc(O)cc(O)c12 [Genistein, 5,7-DIHYDROXY-3-(4-HYDROXYPHENYL)-4-BENZOPYRONE]	52.2	0.0065	0.051	60.1 - estrogen 2-hydroxylase activity ↓ µM	Pos	91.9	53.8	Neg	Active (medium)	Active (medium)	87	Pos	2.43	53.5	15.7	53.8 - Estrogen-dependent gene expression ↓ µM	15.7	0.01	Amount of parent chemical entering the systemic circulation ([1]; 3 nmol/cm^2 in the body lotion formulation): 7.2 % of the applied dose; IC50 (Adenosine A2A (h)): 10 µM; AC50 (Thyroid pathway; read-out: Thyroid pathway: Reporter protein Antagonist, AC50): 13.1 µM; IC50 (5-HT2B (h)): 0.682 µM; IC50 (COX2 (h)): 13.6 µM; ER antagonist, Experimental (ER): Active (weak); IC50 (PDE4D2 (h)): 0.738 µM; Cytotoxicity LOEC, +S9 (U2-OS cells; +S9 (rat liver)): >−5 Log M; Cytotoxicity LOEC, −S9 (U2-OS cells; −S9): >−5 Log M; IC50 (Adenosine A1 (h)): 9.12 µM; IC50 (COX1 (h)): 7.69 µM
